In US4112097A, “Antihypertensive agents” (Abbott Laboratories, priority 1977, dated 1978):
Where a name gives a salt, the structure may show the parent alone. Values belong to the molecule of their own block, whether it stands above or below them.

Key:
physchem = settings: water
Description: The water in the filtrate was removed in vacuo and the residue weighed and found to be 16.7 mg.

[1] = system: spontaneously hypertensive (SH) rats; test: Antihypertensive effect (blood pressure and heart rate) in spontaneously hypertensive rats; assay type: in vivo, rat; settings: for Percent Change BP (blood pressure) / Percent Change HR (heart rate): N=4, mean; for Percent Change (antihypertensive effect): individual values of 2 rats
Description: The screening is conducted as follows:
Male spontaneously hypertensive (SH) rats are trained to be restrained in a wire mesh cylinder in a warming box, at least two training cycles being conducted before testing. The rats are warmed for about 1/2 hour period to blood pressure measurement, the warming box being maintained at a constant temperature of 36° C.
An occluding cuff attached to the programed sphymomanometer is placed near the base of the tail of each rat and the pressure in the cuff is increased automatically from 0 to 250 milimeters of mercury (mm Hg) at a rate of 10 mm Hg per second. The total time for each cycle of inflation and deflation of the cuff is 50 seconds and the interval between cycles is one minute.
A photocell is placed distal to the cuff to record the pulses due to forward motion of blood flow with each heart beat. As the pressure in the cuff increases, the pulse disappears completely at a point where cuff pressure equals or exceeds the arterial blood pressure and it reappears during deflation at approximately the same pressure. Five interference free signals for deflation are recorded for each rat. Rats with a blood pressure of 180 mm Hg or more during the control period are used in the study. Blood pressure and heart rate readings are recorded on a model VII Grass polygraph at intervals of 1, 3, 5 and 24 hours after administration of the drug.

[2] = intraperitoneal 0.3 mg/kg, 1 hour
[3] = intraperitoneal 0.3 mg/kg, 3 hours
[4] = intraperitoneal 0.3 mg/kg, 5 hours
[5] = intraperitoneal 0.3 mg/kg, 24 hours
[6] = intraperitoneal 1 mg/kg, 1 hour
[7] = intraperitoneal 1 mg/kg, 3 hours
[8] = intraperitoneal 1 mg/kg, 5 hours
[9] = intraperitoneal 1 mg/kg, 24 hours
[10] = intraperitoneal 3 mg/kg, 1 hour
[11] = intraperitoneal 3 mg/kg, 3 hours
[12] = intraperitoneal 3 mg/kg, 5 hours
[13] = intraperitoneal 3 mg/kg, 24 hours
[14] = intraperitoneal 10 mg/kg, 1 hour
[15] = intraperitoneal 10 mg/kg, 3 hours
[16] = intraperitoneal 10 mg/kg, 5 hours
[17] = intraperitoneal 10 mg/kg, 24 hours
[18] = intraperitoneal 30 mg/kg, 1 hour
[19] = intraperitoneal 30 mg/kg, 3 hours
[20] = intraperitoneal 30 mg/kg, 5 hours
[21] = intraperitoneal 30 mg/kg, 24 hours

solubility (physchem): 56.5 mg/mL
SMILES: COc1cc2nc(N3CCN(C(=O)C4CCCCO4)CC3)nc(N)c2cc1OC (centres unmarked) [2-[4(Tetrahydropyran-2-Carbonyl)Piperazinyl]-4-Amino-6,7-Dimethoxyquinazoline Hydrochloride]

SMILES: COc1cc2nc(N3CCN(C(=O)C4CCCO4)CC3)nc(N)c2cc1OC (centres unmarked) [Formula II, 2[4(tetrahydro-2-furoyl)-piperazino]-4-amino-6,7-dimethoxyquinazoline]
antihypertensive effect in words ([1]; SH rats): potent antihypertensive agents which lower the blood pressure of spontaneously hypertensive rats
heart rate in words ([1]; SH rats): without causing any significant changes in heart rate
Percent Change BP (blood pressure) [1, 2]: -22.3%
Percent Change HR (heart rate) [1, 2]: 20.0%
Percent Change BP (blood pressure) [1, 3]: -26.5%
Percent Change HR (heart rate) [1, 3]: 10.3%
Percent Change BP (blood pressure) [1, 4]: -20.5%
Percent Change HR (heart rate) [1, 4]: 14.3%
Percent Change BP (blood pressure) [1, 5]: 2.5%
Percent Change HR (heart rate) [1, 5]: 10.0%
Percent Change BP (blood pressure) [1, 6]: -26.5%
Percent Change HR (heart rate) [1, 6]: 22.8%
Percent Change BP (blood pressure) [1, 7]: -27.5%
Percent Change HR (heart rate) [1, 7]: 2.8%
Percent Change BP (blood pressure) [1, 8]: -17.0%
Percent Change HR (heart rate) [1, 8]: 11.5%
Percent Change BP (blood pressure) [1, 9]: 3.8%
Percent Change HR (heart rate) [1, 9]: -9.5%
Percent Change BP (blood pressure) [1, 10]: -45.3%
Percent Change HR (heart rate) [1, 10]: 7.8%
Percent Change BP (blood pressure) [1, 11]: -39.0%
Percent Change HR (heart rate) [1, 11]: -1.5%
Percent Change BP (blood pressure) [1, 12]: -40.0%
Percent Change HR (heart rate) [1, 12]: 3.0%
Percent Change BP (blood pressure) [1, 13]: -2.3%
Percent Change HR (heart rate) [1, 13]: -0.5%
Percent Change BP (blood pressure) [1, 14]: -49.8%
Percent Change HR (heart rate) [1, 14]: 9.0%
Percent Change BP (blood pressure) [1, 15]: -41.5%
Percent Change HR (heart rate) [1, 15]: 24.5%
Percent Change BP (blood pressure) [1, 16]: -41.8%
Percent Change HR (heart rate) [1, 16]: 34.5%
Percent Change BP (blood pressure) [1, 17]: -7.5%
Percent Change HR (heart rate) [1, 17]: 14.0%
Percent Change BP (blood pressure) [1, 18]: -59.5%
Percent Change HR (heart rate) [1, 18]: -9.0%
Percent Change BP (blood pressure) [1, 19]: -42.3%
Percent Change HR (heart rate) [1, 19]: 1.8%
Percent Change BP (blood pressure) [1, 20]: -44.5%
Percent Change HR (heart rate) [1, 20]: 5.3%
Percent Change BP (blood pressure) [1, 21]: -22.3%
Percent Change HR (heart rate) [1, 21]: 5.8%
Percent Change BP (blood pressure) ([1]; oral 0.03 mg/kg, 1 hour): -5.3%
Percent Change HR (heart rate) ([1]; oral 0.03 mg/kg, 1 hour): -4.3%
Percent Change BP (blood pressure) ([1]; oral 0.03 mg/kg, 3 hours): -1.8%
Percent Change HR (heart rate) ([1]; oral 0.03 mg/kg, 3 hours): -8.5%
Percent Change BP (blood pressure) ([1]; oral 0.03 mg/kg, 5 hours): -9.3%
Percent Change HR (heart rate) ([1]; oral 0.03 mg/kg, 5 hours): -14.5%
Percent Change BP (blood pressure) ([1]; oral 0.03 mg/kg, 24 hours): -3.3%
Percent Change HR (heart rate) ([1]; oral 0.03 mg/kg, 24 hours): -8.8%
Percent Change BP (blood pressure) ([1]; oral 0.1 mg/kg, 1 hour): 3.8%
Percent Change HR (heart rate) ([1]; oral 0.1 mg/kg, 1 hour): 3.0%
Percent Change BP (blood pressure) ([1]; oral 0.1 mg/kg, 3 hours): 1.8%
Percent Change HR (heart rate) ([1]; oral 0.1 mg/kg, 3 hours): 4.8%
Percent Change BP (blood pressure) ([1]; oral 0.1 mg/kg, 5 hours): -7.3%
Percent Change HR (heart rate) ([1]; oral 0.1 mg/kg, 5 hours): -6.8%
Percent Change BP (blood pressure) ([1]; oral 0.1 mg/kg, 24 hours): -1.5%
Percent Change HR (heart rate) ([1]; oral 0.1 mg/kg, 24 hours): -0.3%
Percent Change BP (blood pressure) ([1]; oral 0.3 mg/kg, 1 hour): -15.8%
Percent Change HR (heart rate) ([1]; oral 0.3 mg/kg, 1 hour): -1.0%
Percent Change BP (blood pressure) ([1]; oral 0.3 mg/kg, 3 hours): -22.8%
Percent Change HR (heart rate) ([1]; oral 0.3 mg/kg, 3 hours): -2.8%
Percent Change BP (blood pressure) ([1]; oral 0.3 mg/kg, 5 hours): -21.3%
Percent Change HR (heart rate) ([1]; oral 0.3 mg/kg, 5 hours): -2.8%
Percent Change BP (blood pressure) ([1]; oral 0.3 mg/kg, 24 hours): 2.0%
Percent Change HR (heart rate) ([1]; oral 0.3 mg/kg, 24 hours): 10.5%
Percent Change BP (blood pressure) ([1]; oral 1 mg/kg, 1 hour): -15.8%
Percent Change HR (heart rate) ([1]; oral 1 mg/kg, 1 hour): -9.0%
Percent Change BP (blood pressure) ([1]; oral 1 mg/kg, 3 hours): -17.3%
Percent Change HR (heart rate) ([1]; oral 1 mg/kg, 3 hours): -9.3%
Percent Change BP (blood pressure) ([1]; oral 1 mg/kg, 5 hours): -22.5%
Percent Change HR (heart rate) ([1]; oral 1 mg/kg, 5 hours): -8.5%
Percent Change BP (blood pressure) ([1]; oral 1 mg/kg, 24 hours): 3.5%
Percent Change HR (heart rate) ([1]; oral 1 mg/kg, 24 hours): -4.5%
Percent Change BP (blood pressure) ([1]; oral 3 mg/kg, 1 hour): -29.0%
Percent Change HR (heart rate) ([1]; oral 3 mg/kg, 1 hour): -9.3%
Percent Change BP (blood pressure) ([1]; oral 3 mg/kg, 3 hours): -33.3%
Percent Change HR (heart rate) ([1]; oral 3 mg/kg, 3 hours): -11.0%
Percent Change BP (blood pressure) ([1]; oral 3 mg/kg, 5 hours): -31.5%
Percent Change HR (heart rate) ([1]; oral 3 mg/kg, 5 hours): -11.0%
Percent Change BP (blood pressure) ([1]; oral 3 mg/kg, 24 hours): -12.3%
Percent Change HR (heart rate) ([1]; oral 3 mg/kg, 24 hours): -5.3%
Percent Change BP (blood pressure) ([1]; oral 10 mg/kg, 1 hour): -37.0%
Percent Change HR (heart rate) ([1]; oral 10 mg/kg, 1 hour): 12.3%
Percent Change BP (blood pressure) ([1]; oral 10 mg/kg, 3 hours): -42.0%
Percent Change HR (heart rate) ([1]; oral 10 mg/kg, 3 hours): 16.5%
Percent Change BP (blood pressure) ([1]; oral 10 mg/kg, 5 hours): -38.0%
Percent Change HR (heart rate) ([1]; oral 10 mg/kg, 5 hours): -10.3%
Percent Change BP (blood pressure) ([1]; oral 10 mg/kg, 24 hours): -12.0%
Percent Change HR (heart rate) ([1]; oral 10 mg/kg, 24 hours): 1.5%
Percent Change BP (blood pressure) ([1]; oral 30 mg/kg, 1 hour): -30.0%
Percent Change HR (heart rate) ([1]; oral 30 mg/kg, 1 hour): -9.8%
Percent Change BP (blood pressure) ([1]; oral 30 mg/kg, 3 hours): -23.8%
Percent Change HR (heart rate) ([1]; oral 30 mg/kg, 3 hours): -8.8%
Percent Change BP (blood pressure) ([1]; oral 30 mg/kg, 5 hours): -26.0%
Percent Change HR (heart rate) ([1]; oral 30 mg/kg, 5 hours): -15.5%
Percent Change BP (blood pressure) ([1]; oral 30 mg/kg, 24 hours): -4.0%
Percent Change HR (heart rate) ([1]; oral 30 mg/kg, 24 hours): -8.0%

SMILES: COc1cc2nc(N3CCN(C(=O)C4CCCCO4)CC3)nc(N)c2cc1OC (centres unmarked) [Formula III, 2-[4(tetrahydropyran-2-carbonyl)piperazinyl]-4-amino-6,7-dimethoxyquinazoline]
Percent Change (antihypertensive effect) [1, 18]: -58%
Percent Change (antihypertensive effect) [1, 19]: -71%
Percent Change (antihypertensive effect) [1, 20]: -47%
Percent Change (antihypertensive effect) [1, 21]: -28%
Percent Change (antihypertensive effect) ([1]; oral 1 mg/kg, 1 hour, 1 mg/kg): -34%
Percent Change (antihypertensive effect) ([1]; oral 1 mg/kg, 3 hours, 1 mg/kg): -25%
Percent Change (antihypertensive effect) ([1]; oral 1 mg/kg, 5 hours, 1 mg/kg): -21%
Percent Change (antihypertensive effect) ([1]; oral 1 mg/kg, 24 hours, 1 mg/kg): -7%
